Values joined by “and” are separate entries in the source; they are usually repeats but may differ in a detail not shown here. Equal entries are not always repeated.
How the values were obtained:
[1] = target: T1, human ABCB4 (Homo sapiens, UniProt P21439); assay: ATP hydrolysis (malachite green) of detergent-solubilized, purified ABCB4: modulation of basal ATPase activity; assay type: biochemical; details: for EC50: stimulation of basal ATPase activity, allosteric sigmoidal fit, read-out: EC50; for EC50 / Emax / Concentration at which maximal stimulation (plateau) of ATPase activity is reached: 0-1,000 μM; for Emax: vmax of allosteric sigmoidal fit (Equation 1), basal ABCB4 ATPase activity set to 0%, read-out: Max. Stimulation (%)
T1 construct: made in house; host or cells: Pichia pastoris (chromosomally integrated)
Procedure: (§1) The sodium salts of conjugated and unconjugated bile acids were dissolved in double-distilled water (ddH2O) or 100% DMSO at a concentration of 100 mM. While glyco-/tauro-/cholic acid (G/T/CA), glyco-/tauro-/chenodeoxycholic acid (G/T/CDCA) were dissolved in ddH2O water, glyco-/tauro-/deoxycholic acid (G/T/DCA), glyco/-tauro-/ursodeoxycholic acid (G/T/UDCA) as wells as Nor-UDCA and taurolithocholic acid (TLCA) were dissolved in DMSO. […] Modulation of the ATP hydrolysis by bile acid was determined in a concentration-dependent manner from 0 to 1,000 μM bile acids.
(§2) Analysis of the ATP activity of ABCB4 was performed by determining the amount of released, free inorganic orthophosphate by the malachite green assay ([53], [54], [60]) with minor modifications. The assay was performed in a total volume of 100 μl consisting of reaction buffer (50 mM Tris HCl, pH 7.4 at 37°C, 100 mM NaCl) supplemented with the 2.5 × cmc of FC-16 and 10 mM MgCl2. For determining the effect of DOPC, different bile acids or combinations thereof, 1–5 μL of the corresponding stock solutions (see lipid and bile acid preparation) were added. Five micrograms of ABCB4 or the BODIPY®-labeled sample was used in every reaction sample. Reaction was started by addition of ATP (5 mM f.c.) and performed for 40 min at 37°C. After 0 and 40 min, the reaction was stopped by transferring 25 μl of the reaction mixture into a 96-well plate containing 175 μl of 20 mM ice-cold sulfuric acid. Additionally, a phosphate standard with concentrations raging from 0 to 500 μM was used. Subsequently, inorganic phosphate was stained by adding 50 μl of dye (0.096% (w/v) malachite green, 1.48% (w/v) ammonium molybdate, 0.173% (w/v) Tween-20, and […] sulfuric acid). After incubation for 15 min, the absorption at 595 nm was measured (iMark™ Microplate Reader, BioRad), and the concentrations of phosphate release were calculated based on the slope of the line calculated based on the phosphate standards.
(§3) Basal ATPase activity of ABCB4 was set to 0% and the effect of supplements was calculated as % stimulation or % inhibition of the basal activity, respectively. For determination of kinetic parameters, bile acid concentration was varied and analyzed according to an allosteric sigmoidal fit (Equation 1):(1) v=vmax∗[S]^h/EC50h+[S]^h
Here, v describes the stimulation (%), vmax is the maximal stimulation (%), EC50 represents the half maximal effective concentration, S is the substrate concentration, and h is the Hill coefficient
In case of inhibition, the reduction (%) was plotted against the bile acid concentration and data were analyzed using Equation 2:(2) y=ymin+(ymax−ymin)/1+10^((logIC50−x)∗slope)
Here, ymax is the smallest, and ymin is the highest amount of inhibition, respectively, and x represents the concentration of the inhibitor. The IC50 value is defined as the concentration necessary to obtain 50% inhibition.
In case of both substrate stimulations, followed by substrate inhibition after maximal stimulation was reached, the modulation (%) was plotted against the substrate concertation and data was analyzed using by two fits: First part (stimulation) was as usually fitted using Equation 1. The second part (substrate inhibition) was analyzed by Equation 3 starting at the last point of the plateau:(3) y=ymin+[…]/(1+x/IC50)
Here, ymax is the highest value of the plateau after stimulation is reached, while ymin is the smallest value of y after maximal stimulation was reached.

[2] = target: T1, human ABCB4; assay: ATP hydrolysis (malachite green) of purified ABCB4 in the presence of 300 μM DOPC (with or without cholesterol); assay type: biochemical; details: for activity at 1000 µM: 1,000 μM bile acid/detergent/BAM + 300 μM DOPC, DOPC alone set to 100%, read-out: Relative ATPase activity in the presence of 300 μM DOPC
Procedure: A sample of purified ABCB4 was incubated with 10-fold molar excess of BODIPY® FL maleimide (BODIPY® FL N-(2-aminoethyl)maleimide, Molecular Probes) at 22°C for 20 min. The reaction was quenched after 20 min by addition of a 20-fold molar excess of dithiothreitol (DTT) at 22°C for 10 min. Qualitative labeling efficiency was analyzed by visualizing a sample after SDS-PAGE by UV excitation.
DOPC was dissolved in chloroform, the solvent was evaporated, and the dried lipid sample was redissolved in ATP hydrolysis reaction buffer (50 mM Tris HCl, pH 7.4 at 37°C, 100 mM NaCl) at a concentration of 25.4 mM following the protocol of Geertsma et al. ([59]). Prior to the addition of the DOPC sample to the ATP hydrolysis assay, it was diluted to 5 mM, sonicated until a clear solution was obtained, and subsequently used at a final concentration of 300 μM. Since chloroform is not suitable for the later ATPase assay and cholesterol at higher concentration is insoluble in water and nearly all solvents, a molar mixture of cholesterol and DOPC was used. This mixture was obtained by adding the required molar ratio of cholesterol to always the same amount of dried DOPC. Afterward, the mixture was treated identical to DOPC only as described above resulting in a final concentration (f.c.) of 300 μM DOPC with 0–1,000 μM cholesterol in the ATPase assay.
as §1, §2, §3

[3] = Critical micelle concentration by Hoechst 33342 fluorescence in ATPase reaction buffer; assay type: physicochemical; details: 50 mM Tris-HCl pH 7.5, 100 mM NaCl, 37°C; no FC-16, MgCl2 or ATP
Procedure: CMC values were determined as described ([61]). […] 96-well plates suitable for fluorescence spectroscopy (Greiner Bio-One, FIA plate, black, flat bottom, medium binding) were used. […] CMCs of the bile acids were determined in ATPase reaction buffer (50 mM Tris-HCl, pH 7.5 (at 37°C), 100 mM NaCl) containing no FC-16, MgCl2, or ATP at 37°C using a Tecan M200 plate reader (Atlantic lab equipment). Bile acids were dissolved either in ddH2O or in 100% DMSO (as stated in “Lipid, cholesterol and bile acid preparation”) at a concentration of 100 mM. […] In case of hydrophobic bile acids, which were dissolved in DMSO, DMSO concentration was adapted to 1% in all wells. […] After background correction, fluorescence data were analyzed using Prism (version 8, GraphPad) with Equation 4:(4) F=Fmax∗(c[BA]−cmc)/(K0.5−cmc)+(c[BA]−cmc)
The measured fluorescence at each bile acid concentration (c[BA]) is represented by F, while Fmax is the maximal fluorescence, K0.5 is the midpoint of the function, and cmc is the critical micelle concentration of the bile acid.

[4] = Solubility / precipitation of bile acids under assay conditions; assay type: physicochemical; details: assay setup, DMSO stock
Procedure: as §1, with “DMSO. Glyco- and unconjugated lithocholic acid could not be dissolved in DMSO in the appropriate concentrations and therefore excluded.” for “DMSO.”

[5] = Hill coefficient of allosteric sigmoidal fit of ATPase stimulation

T1 sequence (P21439 1-1279 isoform P21439-2): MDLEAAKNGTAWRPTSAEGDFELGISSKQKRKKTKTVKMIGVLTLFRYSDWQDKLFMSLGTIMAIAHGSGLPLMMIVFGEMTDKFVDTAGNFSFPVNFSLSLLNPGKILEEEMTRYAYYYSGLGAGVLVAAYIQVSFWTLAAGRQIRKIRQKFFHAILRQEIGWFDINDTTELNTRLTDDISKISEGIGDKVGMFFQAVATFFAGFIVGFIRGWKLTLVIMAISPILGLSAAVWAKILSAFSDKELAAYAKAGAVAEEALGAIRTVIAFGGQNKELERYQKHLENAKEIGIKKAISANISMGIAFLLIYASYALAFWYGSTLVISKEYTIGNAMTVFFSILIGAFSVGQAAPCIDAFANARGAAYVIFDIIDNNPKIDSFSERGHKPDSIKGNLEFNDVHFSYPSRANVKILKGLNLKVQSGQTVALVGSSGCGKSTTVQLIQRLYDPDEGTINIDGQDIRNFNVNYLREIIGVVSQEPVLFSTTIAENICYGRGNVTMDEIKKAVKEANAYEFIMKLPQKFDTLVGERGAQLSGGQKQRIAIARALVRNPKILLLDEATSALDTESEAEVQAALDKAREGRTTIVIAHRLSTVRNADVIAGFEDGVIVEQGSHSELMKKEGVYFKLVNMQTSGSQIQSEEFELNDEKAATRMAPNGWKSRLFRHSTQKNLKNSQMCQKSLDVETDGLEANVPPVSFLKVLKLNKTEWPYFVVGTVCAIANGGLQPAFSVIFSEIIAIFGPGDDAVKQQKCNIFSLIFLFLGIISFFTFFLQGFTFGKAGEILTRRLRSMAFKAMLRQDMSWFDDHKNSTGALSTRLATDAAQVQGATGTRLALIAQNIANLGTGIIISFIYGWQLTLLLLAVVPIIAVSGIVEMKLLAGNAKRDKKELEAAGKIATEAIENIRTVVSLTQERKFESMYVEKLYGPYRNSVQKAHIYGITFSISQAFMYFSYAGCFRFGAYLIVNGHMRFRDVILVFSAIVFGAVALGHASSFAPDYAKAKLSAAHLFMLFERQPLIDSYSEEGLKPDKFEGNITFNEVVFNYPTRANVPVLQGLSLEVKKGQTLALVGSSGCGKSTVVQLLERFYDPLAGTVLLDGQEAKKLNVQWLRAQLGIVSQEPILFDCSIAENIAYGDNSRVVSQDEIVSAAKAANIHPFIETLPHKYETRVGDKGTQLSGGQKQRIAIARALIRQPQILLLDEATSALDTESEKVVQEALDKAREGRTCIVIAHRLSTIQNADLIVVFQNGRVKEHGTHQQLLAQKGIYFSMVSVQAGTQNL

| SMILES | Slope [1, 5] | EC50 [1] [µM] | Emax [1] [%] | activity at 1000 µM [2] [%] | Critical micelle concentration (cmc) [3] | Concentration above which the bile acid precipitated [4] | Concentration at which maximal stimulation (plateau) of ATPase activity is reached ([1]; basal ATPase activity) | Reduction of ATPase activity at 100 μM ([1]; 100 μM) [%] | inhibition at 1000 µM ([1]; 1,000 μM, 5% DMSO, mixture experiment Fig. 6, read-out: Inhibition of basal ATPase activity by pure bile acid at 1,000 μM) [%] | Concentration at which maximal inhibition is reached ([1]; basal ATPase activity) [µM] | IC50 ([1]; inhibition of basal ATPase activity, Equation 2) [µM] | Slope ([1]; slope of inhibition fit (Equation 2)) | Decrease of DOPC-stimulated ATPase activity ([2]; 1,000 μM + 300 μM DOPC, relative to DOPC alone) |
| --- | --- | --- | --- | --- | --- | --- | --- | --- | --- | --- | --- | --- | --- |
| C[C@H](CCC(=O)O)[C@H]1CC[C@H]2[C@@H]3[C@H](O)C[C@@H]4C[C@H](O)CC[C@]4(C)[C@H]3CC[C@]12C [CDCA, chenodeoxycholic acid] | 1.8 ± 0.4 | 308 ± 56.8 | 137 ± 16.8 | 89.7 ± 1.4 | 1.5 mM and 1.5 ± 0.1 mM | – | – | – | – | – | – | – | – |
| C[C@H](CCC(=O)NCC(=O)O)[C@H]1CC[C@H]2[C@@H]3CC[C@@H]4C[C@H](O)CC[C@]4(C)[C@H]3CC[C@]12C [Glycolithocholic acid] | – | – | – | – | Precipitate ^a | higher than 100 μM | – | – | – | – | – | – | – |
| C[C@H](CCC(=O)O)[C@H]1CC[C@H]2[C@@H]3[C@@H](O)C[C@@H]4C[C@H](O)CC[C@]4(C)[C@H]3CC[C@]12C [UDCA, Ursodeoxycholic acid] | 4.6 ± 1.3 | 470 ± 34.5 | 110 ± 10.7 | 115 ± 22.1 | 1.3 mM and 1.3 ± 0.1 mM | – | – | – | – | – | – | – | – |
| C[C@H](CCC(=O)O)[C@H]1CC[C@H]2[C@@H]3CC[C@@H]4C[C@H](O)CC[C@]4(C)[C@H]3C[C@H](O)[C@]12C [DCA, deoxycholic acid] | 2.6 ± 0.6 | 75 ± 7.3 | 214 ± 13.3 | 100 ± 7.5 | 1.4 mM and 1.4 ± 0.1 mM | – | 300 µM | – | – | – | – | – | – |
| C[C@H](CCC(=O)NCCS(=O)(=O)O)[C@H]1CC[C@H]2[C@@H]3CC[C@@H]4C[C@H](O)CC[C@]4(C)[C@H]3CC[C@]12C [TLCA, taurolithocholic acid] | – | – | – | 34.8 ± 21.9 | 0.14 mM and 0.14 ± 0.03 mM | – | – | 36 | ~50 | 400 | 113 | −2.7 ± 2.1 | approximately 65% |
| C[C@H](CCC(=O)NCCS(=O)(=O)O)[C@H]1CC[C@H]2[C@@H]3[C@@H](O)C[C@@H]4C[C@H](O)CC[C@]4(C)[C@H]3CC[C@]12C [TUDCA] | 4.5 ± 1.4 | 267 | 154 ± 11 | 88.2 ± 8.3 | 1.5 mM and 1.5 ± 0.2 mM | – | – | – | – | – | – | – | – |
| C[C@H](CCC(=O)NCCS(=O)(=O)O)[C@H]1CC[C@H]2[C@@H]3CC[C@@H]4C[C@H](O)CC[C@]4(C)[C@H]3C[C@H](O)[C@]12C [TDCA] | 2.7 ± 0.3 | 102 ± 4.2 | 217 ± 4 | 84.8 ± 9.3 | 1.7 mM and 1.7 ± 0.1 mM | – | – | – | – | – | – | – | – |
| C[C@H](CCC(=O)NCC(=O)O)[C@H]1CC[C@H]2[C@@H]3[C@H](O)C[C@@H]4C[C@H](O)CC[C@]4(C)[C@H]3C[C@H](O)[C@]12C [GCA] | 2.9 ± 0.4 | 177 ± 9.9 | 733 ± 24 | 171 ± 6.9 | 4.1 mM and 4.1 ± 0.1 mM | – | approximately 400 μM | – | – | – | – | – | – |
| C[C@H](CCC(=O)NCC(=O)O)[C@H]1CC[C@H]2[C@@H]3[C@@H](O)C[C@@H]4C[C@H](O)CC[C@]4(C)[C@H]3CC[C@]12C [GUDCA] | 4.5 ± 1.0 | 393 | 185 ± 13 | 111 ± 3.1 | 1.6 mM and 1.6 ± 0.1 mM | – | – | – | – | – | – | – | – |
| C[C@H](CCC(=O)O)[C@H]1CC[C@H]2[C@@H]3[C@H](O)C[C@@H]4C[C@H](O)CC[C@]4(C)[C@H]3C[C@H](O)[C@]12C [CA, cholic acid] | 2.8 ± 0.3 | 390 ± 22.7 | 310 ± 16.4 | 117 ± 8.9 | 2.3 mM and 2.3 ± 0.2 mM | – | – | – | – | – | – | – | – |

— PMC8233136, “Monomeric bile acids modulate the ATPase activity of detergent-solubilized ABCB4/MDR3” (Journal of Lipid Research, 2021)
